Experimental data published in paper PMC9668928, “Zandelisib (ME-401) in Japanese patients with relapsed or refractory indolent non-Hodgkin’s lymphoma: an open-label, multicenter, dose-escalation phase 1 study” (International Journal of Hematology, 2022).

System: Japanese patients with R/R iNHL
Test: Phase 1 dose-escalation study: safety and tolerability (TEAEs, DLTs)
Type: in vivo
Excerpt: Japanese patients aged ≥ 20 years with R/R iNHL histologically confirmed as FL, nodal MZL, extra-nodal MZL of mucosa-associated lymphoid tissue, small lymphocytic lymphoma, lymphoplasmacytic lymphoma, Waldenström’s macroglobulinemia, or equivalent, according to World Health Organization classification, were eligible for this study. Other key eligibility criteria included being PI3K inhibitor therapy-naïve and an Eastern Cooperative Oncology Group performance status of 0 or 1. Further details of inclusion and exclusion criteria are provided in Supplementary Table 1.
This was a multicenter, open-label, dose-escalation, phase 1 study in Japan. All patients received oral zandelisib once daily at the same time each day, at least 1 h before or 2 h after a meal (CS: continuous schedule). Each treatment cycle was 28 days. Definitions of the DLTs described in this study can be found in Supplementary Table 2. The observation period for DLTs was from day 1 of Cycle 1 to day 1 of Cycle 2. Zandelisib was administered until disease progression or unacceptable toxicity. In the event of an AE, patients could be switched to IDT. In the case of disease progression while receiving IDT, patients could be switched back to CS per the investigator’s discretion.
A starting dose of 45 mg was set for investigating patient safety. This study adopted a standard 3 + 3 design. […] If DLTs occurred in 2 or more patients, the study was planned to be suspended pending a safety evaluation. If a DLT occurred in 1 patient, 3 further patients were added to cohort 1. If DLTs occurred in 0/3 or 1/6 patients in cohort 1, dosing in cohort 2 commenced (n = 6; 60 mg/day). If the incidence of DLTs in cohort 2 was ≤ 1/6, the maximum tolerated dose was not determined, and the dose in cohort 2 was to be selected as the recommended Japanese phase 2 dose.
The primary endpoint was the safety [number of patients with treatment-emergent adverse events (TEAEs), based on Common Terminology Criteria for Adverse Events version 5.0] and tolerability (including laboratory values, vital signs, and electrocardiogram performance) of zandelisib in Japanese patients. Hepatobiliary disorder, aspartate/alanine (AST/ALT) increased, diarrhea/colitis, organizing pneumonia, stomatitis, or rash were defined as irAEs in this manuscript. Secondary endpoints included PK (plasma concentrations and PK parameters) and the efficacy of zandelisib. […] The PK parameters for Cycle 1 day 1 and Cycle 2 day 1 were calculated for each patient by non-compartmental analysis. PK parameters included maximum plasma drug concentration (Cmax), area under the plasma concentration–time curve (AUC) from time zero to the last measurable point (AUC0–t), the AUC from time zero to infinity (AUC0-inf), and terminal half-life (t1/2).

CN1CCC(c2ccccc2CC(C)(C)Nc2nc(N3CCOCC3)nc(-n3c(C(F)F)nc4ccccc43)n2)CC1 [zandelisib]
no deaths were observed: deaths (45 mg and 60 mg)
1 (33.3) n (%): TEAE Abdominal pain upper, All grades (45 mg, n = 3) | TEAE Amylase increased, All grades (45 mg, n = 3) | TEAE Anemia, All grades (45 mg, n = 3) | TEAE Arthralgia, All grades (45 mg, n = 3) | TEAE Back pain, All grades (45 mg, n = 3) | TEAE Blood and lymphatic system disorders (SOC), All grades (45 mg, n = 3) | TEAE Bradycardia, All grades (45 mg, n = 3) | TEAE CMV test positive, All grades (45 mg, n = 3) | TEAE Cardiac disorders (SOC), All grades (45 mg, n = 3) | TEAE Conjunctivitis, All grades (45 mg, n = 3) | TEAE Cytomegalovirus viremia, All grades (45 mg, n = 3) | TEAE Decreased appetite, All grades (45 mg, n = 3) | TEAE Decreased appetite, Grade ≥ 3 (45 mg, n = 3) | TEAE Diarrhea, Grade ≥ 3 (45 mg, n = 3) | TEAE Dry eye, All grades (45 mg, n = 3) | TEAE Dry skin, All grades (45 mg, n = 3) | TEAE Dysgeusia, All grades (45 mg, n = 3) | TEAE Dyspnea, All grades (45 mg, n = 3) | TEAE Dyspnea, Grade ≥ 3 (45 mg, n = 3) | TEAE Ear and labyrinth disorders (SOC), All grades (45 mg, n = 3) | TEAE Eosinophil count increased, All grades (45 mg, n = 3) | TEAE Eye disorders (SOC), All grades (45 mg, n = 3) | TEAE General disorders and administration site conditions (SOC), All grades (45 mg, n = 3) | TEAE Hepatic function abnormal, All grades (45 mg, n = 3) | TEAE Hepatobiliary disorders (SOC), All grades (45 mg, n = 3) | TEAE Herpes simplex, All grades (45 mg, n = 3) | TEAE Hypoesthesia, All grades (45 mg, n = 3) | TEAE Infusion site extravasation, All grades (45 mg, n = 3) | TEAE Insomnia, All grades (45 mg, n = 3) | TEAE Joint effusion, All grades (45 mg, n = 3) | TEAE Lymphocyte count decreased, Grade ≥ 3 (45 mg, n = 3) | TEAE Metabolism and nutrition disorders (SOC), All grades (45 mg, n = 3) | TEAE Metabolism and nutrition disorders (SOC), Grade ≥ 3 (45 mg, n = 3) | TEAE Muscle spasms, All grades (45 mg, n = 3) | TEAE Nausea, All grades (45 mg, n = 3) | TEAE Nervous system disorders (SOC), All grades (45 mg, n = 3) | TEAE Neutrophil count decreased, Grade ≥ 3 (45 mg, n = 3) | TEAE Oral herpes, All grades (45 mg, n = 3) | TEAE Organizing pneumonia, All grades (45 mg, n = 3) | TEAE Organizing pneumonia, Grade ≥ 3 (45 mg, n = 3)
2 patients: Grade 3 irAEs (45 mg)
0 n (%): TEAE ALT increased, Grade ≥ 3 (45 mg, n = 3) | TEAE AST increased, Grade ≥ 3 (45 mg, n = 3) | TEAE Abdominal discomfort, All grades (45 mg, n = 3) | TEAE Abdominal discomfort, Grade ≥ 3 (45 mg, n = 3) | TEAE Abdominal pain upper, Grade ≥ 3 (45 mg, n = 3) | TEAE Amylase increased, Grade ≥ 3 (45 mg, n = 3) | TEAE Anemia, Grade ≥ 3 (45 mg, n = 3) | TEAE Arthralgia, Grade ≥ 3 (45 mg, n = 3) | TEAE Back pain, Grade ≥ 3 (45 mg, n = 3) | TEAE Blepharitis, All grades (45 mg, n = 3) | TEAE Blepharitis, Grade ≥ 3 (45 mg, n = 3) | TEAE Blood and lymphatic system disorders (SOC), Grade ≥ 3 (45 mg, n = 3) | TEAE Blood creatinine increased, All grades (45 mg, n = 3) | TEAE Blood creatinine increased, Grade ≥ 3 (45 mg, n = 3) | TEAE Bradycardia, Grade ≥ 3 (45 mg, n = 3) | TEAE CMV test positive, Grade ≥ 3 (45 mg, n = 3) | TEAE Cardiac disorders (SOC), Grade ≥ 3 (45 mg, n = 3) | TEAE Conjunctivitis, Grade ≥ 3 (45 mg, n = 3) | TEAE Constipation, Grade ≥ 3 (45 mg, n = 3) | TEAE Cough, All grades (45 mg, n = 3) | TEAE Cough, Grade ≥ 3 (45 mg, n = 3) | TEAE Drug hypersensitivity, All grades (45 mg, n = 3) | TEAE Drug hypersensitivity, Grade ≥ 3 (45 mg, n = 3) | TEAE Drug-induced liver injury, All grades (45 mg, n = 3) | TEAE Drug-induced liver injury, Grade ≥ 3 (45 mg, n = 3) | TEAE Dry eye, Grade ≥ 3 (45 mg, n = 3) | TEAE Dry skin, Grade ≥ 3 (45 mg, n = 3) | TEAE Dysgeusia, Grade ≥ 3 (45 mg, n = 3) | TEAE Ear and labyrinth disorders (SOC), Grade ≥ 3 (45 mg, n = 3) | TEAE Eczema, All grades (45 mg, n = 3) | TEAE Eczema, Grade ≥ 3 (45 mg, n = 3) | TEAE Eosinophil count increased, Grade ≥ 3 (45 mg, n = 3) | TEAE Erythema multiforme, All grades (45 mg, n = 3) | TEAE Erythema multiforme, Grade ≥ 3 (45 mg, n = 3) | TEAE Eye disorders (SOC), Grade ≥ 3 (45 mg, n = 3) | TEAE Flank pain, All grades (45 mg, n = 3) | TEAE Flank pain, Grade ≥ 3 (45 mg, n = 3) | TEAE GGT increased, All grades (45 mg, n = 3) | TEAE GGT increased, Grade ≥ 3 (45 mg, n = 3) | TEAE General disorders and administration site conditions (SOC), Grade ≥ 3 (45 mg, n = 3) | TEAE Hepatic function abnormal, Grade ≥ 3 (45 mg, n = 3) | TEAE Hepatobiliary disorders (SOC), Grade ≥ 3 (45 mg, n = 3) | TEAE Herpes simplex, Grade ≥ 3 (45 mg, n = 3) | TEAE Herpes zoster, All grades (45 mg, n = 3) | TEAE Herpes zoster, Grade ≥ 3 (45 mg, n = 3) | TEAE Hypoesthesia, Grade ≥ 3 (45 mg, n = 3) | TEAE Hypogammaglobulinemia, Grade ≥ 3 (45 mg, n = 3) | TEAE Immune system disorders (SOC), Grade ≥ 3 (45 mg, n = 3) | TEAE Infections and infestations (SOC), Grade ≥ 3 (45 mg, n = 3) | TEAE Infusion site extravasation, Grade ≥ 3 (45 mg, n = 3) | TEAE Insomnia, Grade ≥ 3 (45 mg, n = 3) | TEAE Joint effusion, Grade ≥ 3 (45 mg, n = 3) | TEAE Muscle spasms, Grade ≥ 3 (45 mg, n = 3) | TEAE Musculoskeletal and connective tissue disorders (SOC), Grade ≥ 3 (45 mg, n = 3) | TEAE Nasopharyngitis, Grade ≥ 3 (45 mg, n = 3) | TEAE Nausea, Grade ≥ 3 (45 mg, n = 3) | TEAE Nervous system disorders (SOC), Grade ≥ 3 (45 mg, n = 3) | TEAE Oral herpes, Grade ≥ 3 (45 mg, n = 3) | TEAE Oropharyngeal pain, All grades (45 mg, n = 3)
2 (66.7) n (%): TEAE ALT increased, All grades (45 mg, n = 3) | TEAE AST increased, All grades (45 mg, n = 3) | TEAE Constipation, All grades (45 mg, n = 3) | TEAE Diarrhea, All grades (45 mg, n = 3) | TEAE Gastrointestinal disorders (SOC), All grades (45 mg, n = 3) | TEAE Gastrointestinal disorders (SOC), Grade ≥ 3 (45 mg, n = 3) | TEAE Hypogammaglobulinemia, All grades (45 mg, n = 3) | TEAE Immune system disorders (SOC), All grades (45 mg, n = 3) | TEAE Infections and infestations (SOC), All grades (45 mg, n = 3) | TEAE Investigations (SOC), Grade ≥ 3 (45 mg, n = 3) | TEAE Lymphocyte count decreased, All grades (45 mg, n = 3) | TEAE Musculoskeletal and connective tissue disorders (SOC), All grades (45 mg, n = 3) | TEAE Nasopharyngitis, All grades (45 mg, n = 3) | TEAE Neutrophil count decreased, All grades (45 mg, n = 3)
3 (100.0) n (%): TEAE Investigations (SOC), All grades (45 mg, n = 3)
